Measured values from PMC10294627, “PhoPQ Regulates Quinolone and Cephalosporin Resistance Formation in Salmonella Enteritidis at the Transcriptional Level” (mBio, 2023).
Read-outs that look alike come from different tables or passages of the source.

Columns and labels:
[1] = target: T1, PhoQ^SD (periplasmic sensor domain of PhoQ) (Salmonella enterica, UniProt P0DM80); assay: differential scanning calorimetry; assay type: binding; details: 20 μM protein, 100 μM ligand, 10 mM sodium phosphate pH 7.4; Tm of complex, apo Tm 52.29 °C
T1 construct: periplasmic sensor domain (residues 45-188 as aligned; exact construct borders in supplement), His-tagged, pET28a, E. coli BL21, Ni-NTA purified, dimer by native-PAGE

[2] = target: T1, PhoQ^SD (periplasmic sensor domain of PhoQ); assay: microscale thermophoresis; assay type: binding
Excerpt: microscale thermophoresis on PhoQ^SD (periplasmic sensor domain of PhoQ) | NAL, CAZ, or ofloxacin, we also obtained well-fitted curves

[3] = target: T2, His-tagged PhoQ (Salmonella enterica, UniProt P0DM80); assay: Phos-tag gel autophosphorylation, membrane extract, anti-His blot; assay type: biochemical; details: with ATP, in vitro
T2 construct: 6xHis-tagged PhoQ, no truncation stated, in membrane extracts of E. coli DH5alpha; anti-His read-out; dimeric histidine kinase

[4] = target: periplasmic sensor domain of PhoQ (PhoQ^SD), His-tagged, S. Enteritidis (Salmonella Enteritidis); assay: native gel or EMSA; native-PAGE of PhoQ^SD expressed in E. coli BL21; data not shown

## CC(C)(O/N=C(\C(=O)N[C@@H]1C(=O)N2C(C(=O)[O-])=C(C[n+]3ccccc3)CS[C@H]12)c1csc(N)n1)C(=O)O [ceftazidime]
[1]
  Tm: 50.54 °C
[2]
  Kd: 25.6 ± 13.4 µM

## CO/N=C(\C(=O)N[C@@H]1C(=O)N2C(C(=O)[O-])=C(C[N+]3(C)CCCC3)CS[C@H]12)c1csc(N)n1 [cefepime]
[3]
  Phos-tag gel autophosphorylation, membrane extract, anti-His blot: cephalosporins (ceftazidime, ceftriaxone, and cefepime) or ATP

## CO/N=C(\C(=O)N[C@@H]1C(=O)N2C(C(=O)O)=C(CSc3nc(=O)c(=O)[nH]n3C)CS[C@H]12)c1csc(N)n1 [ceftriaxone]
[3]
  Phos-tag gel autophosphorylation, membrane extract, anti-His blot: cephalosporins (ceftazidime, ceftriaxone, and cefepime) or ATP

## CCn1cc(C(=O)O)c(=O)c2ccc(C)nc21 [nalidixic acid]
[1]
  Tm: 51.00 °C
[2]
  Kd: 24.7 ± 4.3 µM

## O=C(O)c1cn(C2CC2)c2cc(N3CCNCC3)c(F)cc2c1=O [ciprofloxacin]
[3]
  Phos-tag gel autophosphorylation, membrane extract, anti-His blot: treated with quinolones (nalidixic acid, ciprofloxacin, and ofloxacin)

## CC1COc2c(N3CCN(C)CC3)c(F)cc3c(=O)c(C(=O)O)cn1c23 (stereo not drawn) [ofloxacin]
[2]; read-out: Kd
  Kd: 33.1 ± 28.3 µM

## periplasmic sensor domain of PhoQ (PhoQ^SD), His-tagged, S. Enteritidis (domain or fragment)
[4]
  stoichiometry N: 2
